The target of data set [1] is T1, NaV1.7 (Homo sapiens, UniProt Q15858).
T1 construct: expressed in transfected cells; tetracycline-inducible, kept under hygromycin and blasticidin
The data set can be described thus: Automated patch clamp (Qube 384), external block of NaV1.7 in HEK293 cells. Particulars: compound in external solution, read-out: Nav1.7 Extracellular Inhibition (IC50). It counts as cell-based. The protocol: (§1) NaV1.7 was expressed in HEK293 cells upon induction with tetracycline. Cells were cultured in DMEM containing 10% dialyzed Fetal Bovine Serum (VWR, Radnor, Pa.), 1% Glutamax (VWR, Radnor, Pa.), 1% Penicillin-Streptomycin (VWR, Radnor, Pa.), 100 mg/L Hygromycin (Thermo Fisher Scientific, Waltham, Mass. and 5 mg/L Blasticidin (Alfa Aesar, Haverhill, Mass.). Cells were grown and maintained at 37° C. in a humidified environment containing 10% CO2 in air. Cells were detached from the culture flask for passage and harvested using 0.05% Trypsin-EDTA (Thermo Fisher Scientific, Waltham, Mass.). To induce NaV1.7, cells were induced with tetracycline (0.1-1 μg/mL, IBI Scientific, Peosta, Iowa) the day before recording.
(§2) Before experiments, cells were washed with DPBS (VWR, Radnor, Pa.), digested with Detachin (VWR Radnor, Pa.) and then triturated 10 times in CHO Serum-Free Media (VWR Radnor, Pa.) to resuspend the cells and to break apart cell aggregates. Cells were counted and the final concentration was set at 2-5 million cells per mL.
(§3) The intracellular solution contained the following: 140 mM CsF, 1 mM/5 mM EGTA/CsOH, 10 mM HEPES, 10 mM NaCl, adjusted to pH 7.3 with CsOH, and osmolality to 320 with sucrose. The external solution contained the following: 145 mM NaCl, 4 mM KCl, 1 mM MgCl2, 2 mM CaCl2, 10 mM HEPES, 10 mM Glucose, adjusted to pH 7.4 with CsOH and osmolality to 305 with sucrose. All chemicals are from Sigma-Aldrich, St. Louis, Mo. In order to test the degree of internal block by test compounds, the compounds were dissolved in internal solution at the indicated test concentration. […] In order to test the degree of external block by test compounds the compounds were dissolved in external solution at the indicated test concentration.
(§4) Automated Patch Clamps were performed on Qube 384 (Sophion Bioscience, Woburn Mass.) with multihole Qchips at a temperature setting of 22 degrees. The whole cells configuration was formed with default Qube seal and break-in parameter. The membrane potential was held at −100 mV before the voltage protocol began. Two voltage protocols were followed.
(§5) Step 1: Cells were held at −100 mV with a depolarized pulse to −20 mV for 10 ms, the interval was set at 5 s. Currents were corrected by default leak subtraction from every pulse. The duration was set at 5 mins.
(§6) Step 2: Cells were held at −100 mV with a depolarized pulse to −20 mV for 10 ms. The frequency was 5 Hz. Currents were corrected by leak subtraction calculated before step 2. The duration was set at 4 mins.
After Step 2, the external solution was changed with solutions containing test compounds. Qchips were held at −100 mV without pulsing. The total solution switching time was 8 minutes. After the external solution exchange, cells were recorded using the same procedure as step 2 for 10 minutes.
Data analysis was performed by Sophion Analyzer. Data were corrected with control cells (Non-Drug). The IC50 data were plotted with DR-plots/Hill function (a dose-response plot with a Hill fit).

Data set [2] has as its target T1, NaV1.7. Put plainly: Automated patch clamp (Qube 384), internal block of NaV1.7 in HEK293 cells. It counts as cell-based. To be noted: compound in internal solution, read-out: Nav1.7 Intracellular Inhibition (IC50). The protocol:
as §1, §2, §3, §4, §5, §6
After Step 2, the Qchip was removed from the recording chamber. The internal solution was changed with solutions containing test compounds. Qchips were held at −100 mV without pulsing after being replaced in the recording chamber. The total solution switching time was 8 minutes. After the internal solution exchange, Cells were recorded and step 2 for repeated for 10 minutes.
Data analysis was performed by Sophion Analyzer. Cells were filtered with minimum 50 MOhm seal resistance and minimum 5 nA starting current. The rundown of the currents was corrected with control cells (Non-Drug). The remaining was calculated by averaging last 3 points in the end of experiments. The base line was calculated as the average of last 3 points of Step 2. IC50 curves were plotted with DR-plots/Hill function (a dose-response plot with a Hill fit). Data analysis was performed by Sophion Analyzer.

The target in data set [3] is T1, NaV1.7. The data set can be described thus: Whole cell patch clamp, internal block of NaV1.7 current (compound in internal solution). Format: cell-based. To be noted: compound applied internally, manual patch clamp, read-out: Nav1.7 Intracellular Inhibition. Here is the method:
Representative compounds of the invention were synthesized according to the described methods and tested for the ability to inhibit voltage-gated sodium channels.
as §1, with “expressed” for “expressed in HEK293 cells”, “recording and plated onto 24-well plates. Cells were washed with DPBS (VWR, Radnor, Pa.), trypsinized and then triturated five times in 10 mL of growth media to break apart cell aggregates. For one 24-well plate, 2 mL of cell suspension was mixed with 23 mL of fresh growth media and 0.1-1 μg/mL tetracycline added. 1 ml of mixed media with cells was then added to each well of a 24-well plate, with a 12 mm coverslip already placed in the bottom of the well. Cells were then incubated in 37° C. and 10% CO2 overnight.” for “recording.”
The intracellular solution contained the following (in mM) CsCl 135, NaCl 10, EGTA 10, HEPES 10, MgCl2 2, adjusted to pH 7.2 with CsOH. The external solution was a normal Ringer solution containing (in mM) NaCl 155, HEPES 10, glucose 10, KCl 3.5, CaCl2 1.5, MgCl2 1 adjusted to pH 7.4 with NaOH. CsCl is from Alfa Aesar, Haverhill, Mass. All other chemicals are from Sigma-Aldrich, St. Louis, Mo. In order to test the degree of internal block by test compounds the compounds were dissolved in internal solution at the indicated test concentration. […] In order to test the degree of external block by test compounds the compounds were dissolved in external solution at the indicated test concentration.
18-24 hours after cells were induced with tetracycline, coverslips were placed into a chamber filled with Normal Ringer solution at room temperature and the chamber placed on a microscope. Pipettes were pulled from borosilicate glass on a P97 puller (Sutter Instrument, Novato, Calif.) and polished with a MF-830 Microforge (Narishige International USA, Inc, Amityville, N.Y.) to have a resistance of 1.5-2.5 MΩ when filled with CsCl internal solution at room temperature. Healthy cells (those that are round and translucent with no visible blemishes) were chosen for seal formation. A seal was formed between the pipette and the cell, and a brief pulse of suction was used to “break in” and establish the whole-cell configuration. The membrane potential was held at −100 mV before the voltage protocol began. Only cells with series resistance between 1.5-5 MΩ were retained for analysis. The voltage protocol was as follows: Cells were held at −100 mV for 12 ms followed by a hyperpolarizing step to −105 mV for 12 ms to monitor the leak. Cells were then stepped back to −100 mV for 40 ms. Cells were then depolarized to −20 mV for 10 ms and then returned to −100 mV for 26 ms.
Once the recording was started, the voltage protocol was run at 30 second intervals for 5 minutes to get a stable baseline. This was followed by four 30-second periods of 5 Hz stimulation of the same voltage protocol separated by 1 minute of rest which was then followed by 0.33 Hz stimulation after the last train. Currents were recorded using PatchMaster software with Heka EPC10 (HEKA Electronics, Lambrecht, Germany). Only cells with inward current amplitudes at −20 mV between 400 pA and 4 nA were accepted. In addition, cells having leak currents greater than 10% of their current amplitudes were discarded. […]

The nature of data set [4]: PAMPA membrane permeability assay. It counts as in vitro ADME. Particulars: PAMPA permeability coefficient, GIT lipid, buffer pH 7.4, 4 hours incubation. The protocol:
The PAMPA assay (pION, Inc., Woburn Mass.) was used to determine the ability of compounds of the invention to cross an artificial lipid membrane by passive diffusion. Test compounds were dissolved in DMSO (10 mM) and diluted 200-fold in buffer (pION Inc., pH 7.4) to provide 50 uM stock solutions. Buffer (150 μL) was added to a UV blank plate and stock solutions (150 μL) were transferred to a UV reference plate. The blank and reference spectrum were read using a spectrophotometer. Stock solutions (200 μL) were added to the donor plate of the PAMPA sandwich plate and an accept plate painted with GIT lipid (pION Inc, 5 μL) was placed on top. Buffer (200 μL) was added to the acceptor plate and the PAMPA sandwich plate was incubated for 4 hours. Aliquots (150 μL) from the acceptor plate were added to a UV plate and read as acceptor spectrum. Aliquots (150 μL) of the donor solutions were added to a UV analysis plate and read as donor spectrum. The permeability coefficient of test compounds was calculated using PAMPA Explorer™ software (version 3.5.0.4) based on the AUC of the reference plate, the donor plate, and the acceptor plate.

T1 sequence (Q15858 whole entry): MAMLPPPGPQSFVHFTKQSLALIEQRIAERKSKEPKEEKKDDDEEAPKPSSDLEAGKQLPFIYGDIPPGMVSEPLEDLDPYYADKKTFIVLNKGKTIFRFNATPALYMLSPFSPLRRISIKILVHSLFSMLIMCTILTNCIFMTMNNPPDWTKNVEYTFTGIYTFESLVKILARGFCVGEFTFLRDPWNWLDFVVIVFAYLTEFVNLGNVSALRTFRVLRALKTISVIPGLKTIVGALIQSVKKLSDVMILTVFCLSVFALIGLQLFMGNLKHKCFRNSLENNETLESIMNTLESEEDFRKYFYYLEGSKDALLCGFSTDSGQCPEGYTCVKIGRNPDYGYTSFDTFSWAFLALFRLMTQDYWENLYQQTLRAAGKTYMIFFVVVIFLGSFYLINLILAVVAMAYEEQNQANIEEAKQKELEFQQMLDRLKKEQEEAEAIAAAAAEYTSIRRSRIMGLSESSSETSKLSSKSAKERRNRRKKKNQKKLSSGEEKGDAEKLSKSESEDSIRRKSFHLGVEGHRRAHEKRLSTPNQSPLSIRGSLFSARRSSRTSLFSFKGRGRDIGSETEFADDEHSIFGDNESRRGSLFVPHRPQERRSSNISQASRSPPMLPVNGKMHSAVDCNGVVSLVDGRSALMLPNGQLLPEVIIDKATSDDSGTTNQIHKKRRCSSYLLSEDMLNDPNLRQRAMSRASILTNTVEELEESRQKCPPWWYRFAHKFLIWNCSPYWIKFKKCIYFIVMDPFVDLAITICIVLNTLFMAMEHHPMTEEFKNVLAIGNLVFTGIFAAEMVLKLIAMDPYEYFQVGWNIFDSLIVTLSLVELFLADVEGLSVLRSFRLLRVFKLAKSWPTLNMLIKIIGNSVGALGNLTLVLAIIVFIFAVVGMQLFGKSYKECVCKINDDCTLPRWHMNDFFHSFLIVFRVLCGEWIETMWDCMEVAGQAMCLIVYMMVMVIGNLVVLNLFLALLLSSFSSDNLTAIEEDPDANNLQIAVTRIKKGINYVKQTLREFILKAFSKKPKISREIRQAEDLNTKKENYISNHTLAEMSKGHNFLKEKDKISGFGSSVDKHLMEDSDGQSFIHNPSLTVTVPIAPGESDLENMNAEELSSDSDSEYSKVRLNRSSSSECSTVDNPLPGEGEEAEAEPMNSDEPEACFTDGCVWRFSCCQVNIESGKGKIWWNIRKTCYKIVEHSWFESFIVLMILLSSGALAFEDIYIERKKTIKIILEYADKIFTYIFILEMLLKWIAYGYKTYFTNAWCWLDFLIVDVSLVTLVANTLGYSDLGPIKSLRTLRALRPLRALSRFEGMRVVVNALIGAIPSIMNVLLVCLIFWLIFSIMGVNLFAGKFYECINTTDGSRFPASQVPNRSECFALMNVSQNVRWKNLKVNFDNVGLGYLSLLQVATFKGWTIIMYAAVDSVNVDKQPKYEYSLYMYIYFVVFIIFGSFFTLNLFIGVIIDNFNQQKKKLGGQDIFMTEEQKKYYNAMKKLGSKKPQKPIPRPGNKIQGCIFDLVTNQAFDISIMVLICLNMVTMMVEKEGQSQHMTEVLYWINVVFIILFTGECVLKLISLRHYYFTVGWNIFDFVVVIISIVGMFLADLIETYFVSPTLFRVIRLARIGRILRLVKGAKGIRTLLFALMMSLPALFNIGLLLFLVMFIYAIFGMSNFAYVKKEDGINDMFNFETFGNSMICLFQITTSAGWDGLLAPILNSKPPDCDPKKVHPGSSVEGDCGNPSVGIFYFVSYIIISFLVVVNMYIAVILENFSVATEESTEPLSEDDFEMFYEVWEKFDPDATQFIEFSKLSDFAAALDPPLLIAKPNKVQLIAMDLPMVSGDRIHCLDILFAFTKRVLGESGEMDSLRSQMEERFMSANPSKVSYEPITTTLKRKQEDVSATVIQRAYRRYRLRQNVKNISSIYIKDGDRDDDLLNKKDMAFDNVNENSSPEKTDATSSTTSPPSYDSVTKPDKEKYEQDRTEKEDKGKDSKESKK

Turning to `Cc1cccc(C)c1NC(=O)C[n+]1cccn1-c1ccccc1` [Compound 29], the 50% inhibitory concentration (IC50) on NaV1.7 [1] is more than 100 µM; at NaV1.7 [2], 3 to 10 µM.

Regarding `Cc1cccc(C)c1NC(=O)C[n+]1c(C)ccc(-c2ccccc2)c1C` [Compound 23], the figures for the half-maximal inhibitory concentration (IC50) on NaV1.7 [1] and at NaV1.7 [2] were less than 10 µM and less than 1 µM, respectively.

Take `Cc1cccc(C)c1NC(=O)C[n+]1cc(CO)n(C(C)C)c1` [Compound 59]: the inhibition at 10 µM at NaV1.7 [3] lay within 70 to 95%. Further, the 50% inhibitory concentration (IC50) at NaV1.7 [2] was in the range of 10 to 30 µM. Besides, the “PAMPA (10^−6 cm/s)” value in data set [4] is on record as “++ (0.1-2.0 10^−6 cm/s)”.

As for `Cc1cccc(C)c1NC(=O)C[n+]1c(C)cccc1C` [Compound 6], the figures for the IC50 at NaV1.7 [1] and on NaV1.7 [2] were more than 100 µM and 1 to 3 µM, respectively.

On to `Cc1cccc(C)c1NC(=O)C[n+]1cccc(C(=O)OC2CCCC2)c1` [Compound 105], for which, on NaV1.7 [2], the half-inhibitory concentration (IC50) fell in the range of 1 to 3 µM.

As for `Cc1cccc(C)c1NC(=O)C[n+]1cccn1CC(C)C` [Compound 27], the values for the IC50 at NaV1.7 [1] and on NaV1.7 [2] were more than 100 µM and 1 to 3 µM, respectively.

`Cc1cccc(C)c1NC(=O)C[n+]1cccc(-c2nn[nH]n2)c1` [Compound 53]: the inhibition at 10 µM at NaV1.7 [3] is less than 40%. On NaV1.7 [2], the concentration for half-maximal inhibition (IC50) fell in the range of 10 to 30 µM. Moreover, the “PAMPA (10^−6 cm/s)” value in data set [4] is “+ (<0.1 10^−6 cm/s)”.

On to `Cc1cccc(C)c1NC(=O)C[n+]1cccc(C2CCCC2)c1` [Compound 21], for which the 50% inhibitory concentration (IC50) was less than 10 µM at NaV1.7 [1] and less than 1 µM at NaV1.7 [2].

Take `Cc1cccc(C)c1NC(=O)C[n+]1cccn1C1CCCCC1` [Compound 28]: the IC50 at NaV1.7 [1] was 30 to 100 µM; at NaV1.7 [2], less than 1 µM.

With `Cc1cccc(C)c1NC(=O)C[n+]1cc(-c2ccccc2)c2ccccc2c1` [Compound 100], the IC50 on NaV1.7 [1] was less than 10 µM; at NaV1.7 [2], 1 to 3 µM.

For the compound `Cc1cccc(C)c1NC(=O)C[n+]1ccccc1-c1ccccc1` [Compound 16], the IC50 on NaV1.7 [1] was more than 100 µM; at NaV1.7 [2], 1 to 3 µM.

Turning to `Cc1cccc(C)c1NC(=O)C[n+]1ccccc1C.[Br-]` [Compound 5A, 1-(2-((2,6-dimethylphenyl)amino)-2-oxoethyl)-2-methylpyridin-1-ium bromide], the inhibition at 32 µM at NaV1.7 [3] lay within 70 to 95%. Also, the “PAMPA (10^−6 cm/s)” value in data set [4] is recorded as “+ (<0.1 10^−6 cm/s)”.

Turning to `CCC(C(=O)Nc1c(C)cccc1C)[n+]1ccn(C)c1.[Br-]` (stereo not drawn) [Compound 4A, 3-(1-((2,6-dimethylphenyl)amino)-1-oxobutan-2-yl)-1-methyl-1H-imidazol-3-ium bromide], the inhibition at 32 µM on NaV1.7 [3] fell in the range of 40 to 70%. For the same compound, the “PAMPA (10^−6 cm/s)” value in data set [4] is recorded as “+ (<0.1 10^−6 cm/s)”.

As to `Cc1cccc(C)c1NC(=O)C[n+]1cccc(C2CC2)c1` [Compound 22], the IC50 on NaV1.7 [1] was 30 to 100 µM; on NaV1.7 [2], 3 to 10 µM.

As for `Cc1cccc(C)c1NC(=O)Cn1cc[n+](CC(=O)Nc2c(C)cccc2C)c1` [Compound 110], the inhibition at 10 µM on NaV1.7 [3] is 70 to 95%. In addition, the IC50 on NaV1.7 [2] was in the range of 10 to 30 µM. Further, the “PAMPA (10^−6 cm/s)” value in data set [4] is “++ (0.1-2.0 10^−6 cm/s)”.

With `CC(=O)Nc1ccc[n+](CC(=O)Nc2c(C)cccc2C)c1` [Compound 48], the inhibition at 10 µM at NaV1.7 [3] was more than 95%. Further, the “PAMPA (10^−6 cm/s)” value in data set [4] is reported as “+ (<0.1 10^−6 cm/s)”.

On to `Cc1cccc(C)c1NC(=O)C[n+]1cccc2ccccc21.[Br-]` [Compound 18A], for which, at NaV1.7 [3], the inhibition at 32 µM was more than 95%. Besides, in data set [4], the “PAMPA (10^−6 cm/s)” value is “+ (<0.1 10^−6 cm/s)”.

As to `Cc1cccc(C)c1NC(=O)C[n+]1ccccc1.[Br-]` [Compound 1A, 1-(2-((2,6-dimethylphenyl)amino)-2-oxoethyl) pyridin-1-ium bromide], the inhibition at 32 µM at NaV1.7 [3] fell in the range of 70 to 95%. For the same compound, the “PAMPA (10^−6 cm/s)” value in data set [4] was “++ (0.1-2.0 10^−6 cm/s)”.

For `Cc1cccc(C)c1NC(=O)C[n+]1ccc(-c2ccccc2)cc1.[Br-]` [Compound 14A], the inhibition at 32 µM on NaV1.7 [3] was less than 40%. Also, in data set [4], the “PAMPA (10^−6 cm/s)” value is listed as “+ (<0.1 10^−6 cm/s)”.

In the case of `Cc1cccc(C)c1NC(=O)C[n+]1ccn(C(C)(C)C)c1` [Compound 36], the inhibition at 10 µM on NaV1.7 [3] lay within 70 to 95%. Further, the “PAMPA (10^−6 cm/s)” value in data set [4] is given as “+ (<0.1 10^−6 cm/s)”.

The record behind these values is patent US10934263B2, “Charged ion channel blockers and methods for use” (Nocion Therapeutics, Inc., priority 2019, dated 2021).
